Data: US20250304623A1, “PEPTIDES FOR INTRACELLULAR DELIVERY” (UNIVERSIDADE DE SANTIAGO DE COMPOSTELA, priority 2022, published 2025)
*: point of attachment. NHNH2 = NN*

Columns and labels:
Format in all cases: cell-based
HepG2 cells [1] = assay: RLuc pDNA delivery, robotic library screening, HepG2
Summary of the method: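 After the 4 h exposure the complexes were replaced with fresh DMEM plus 10% FBS. At 72 hours cells were washed with HBSS, kept 30 minutes at 37° C. for basal readings, then given coelenterazine h (5 μM final) for 10 minutes before total luminescence was read. Triplicate means had untransfected background subtracted and were also expressed relative to Lipofectamine® 2000 set at 1.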

HepG2 cells [2] = assay: EGFP mRNA delivery, robotic library screening, HepG2; conditions: HepG2 cells
Summary of the method: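 This robotic library screen tested delivery of CleanCap EGFP mRNA (5moU) into HepG2 cells using amphiphilic molecules. Complexes were freshly prepared at room temperature and added to the cells, and the medium was then replaced with fresh DMEM plus 10% FBS. Total EGFP fluorescence was measured in a plate reader at 72 h in triplicate, with untreated-cell background subtracted.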

ARPE19 cells = assay: EGFP mRNA delivery, robotic library screening, ARPE19
Summary of the method: (§1)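 Transfection used amphiphile at final 2.5, 5 or 10 μM with EGFP mRNA (25 ng/well) for 4 h without serum, then medium with 10% FBS. Plate-reader EGFP signal at 72 h, untreated background removed, mean of triplicates.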

Hela cells = assay: EGFP mRNA delivery, robotic library screening, HeLa
Summary of the method: as §1

Substance | mean luminescent intensity (RLuc pDNA) (HepG2 cells [1]; Dodecanal, 10 μM) [RLU] | mean luminescent intensity (RLuc pDNA) (HepG2 cells [1]; Dodecanal, 15 μM) [RLU] | mean luminescent intensity (RLuc pDNA) (HepG2 cells [1]; Myristoleyl, 10 μM) [RLU] | mean luminescent intensity (RLuc pDNA) (HepG2 cells [1]; Myristoleyl, 15 μM) [RLU] | mean luminescent intensity (RLuc pDNA) (HepG2 cells [1]; Oleyl, 5 μM) [RLU] | mean fluorescence intensity after transfection of EGFP mRNA (HepG2 cells [2]; Myristoleyl, 5 μM) | mean fluorescence intensity after transfection of EGFP mRNA (HepG2 cells [2]; Myristoleyl, 15 μM) | mean fluorescence intensity after transfection of EGFP mRNA (HepG2 cells [2]; Palmitoleyl, 5 μM) | mean fluorescence intensity after transfection of EGFP mRNA (HepG2 cells [2]; Palmitoleyl, 10 μM) | mean fluorescence intensity after transfection of EGFP mRNA (HepG2 cells [2]; Palmitoleyl, 15 μM) | mean fluorescence intensity (EGFP mRNA) (ARPE19 cells; Petroselinyl, 5 μM) | mean fluorescence intensity (EGFP mRNA) (ARPE19 cells; Petroselinyl, 10 μM) | mean fluorescence intensity (EGFP mRNA) (Hela cells; HeLa, Petroselinyl, 10 μM) | mean fluorescence intensity (EGFP mRNA) (Hela cells; Hela, Petroselinyl, 5 μM) | mean luminescent intensity (RLuc pDNA) (HepG2 cells [1]; Myristoleyl, 5 μM) [RLU] | mean luminescent intensity (RLuc pDNA) (HepG2 cells [1]; Oleyl, 15 μM) [RLU] | mean luminescent intensity (RLuc pDNA) (HepG2 cells [1]; Palmitoleyl, 5 μM) [RLU] | mean luminescent intensity (RLuc pDNA) (HepG2 cells [1]; Palmitoleyl, 15 μM) [RLU] | mean fluorescence intensity after transfection of EGFP mRNA (HepG2 cells [2]; Dodecanal, 10 μM) | mean fluorescence intensity after transfection of EGFP mRNA (HepG2 cells [2]; Oleyl, 5 μM) | further results
Ac-RRHK*RLK*RRLK*RL-NH2 (Ac-RRHK(NHNH2)RLK(NHNH2)RRLK(NHNH2)RL-NH2; not fully specified; printed as Ac-RRHK*RLK*RRLK*RL-NH2; also: K*4,K*7,K*11: native or modified lysine (ε-amide to a linker)) [13(Leu-His)] | 12080 | 73505 | 61828 | 35356 | 116466 | 2950 | 308 | 1636 | 574 | −350 | 318 | 419 | 45 | 112 |  |  |  |  |  |  | mean luminescent intensity (RLuc pDNA) (HepG2 cells [1]; Palmitoleyl, 10 μM): 71476 RLU
Ac-RRLK*RLK*RRLK*RL-NH2 [Peptide 13.3] |  |  | 54569 | 59751 |  |  |  | 689 | 986 | 974 | 828 | 1310 | 489 | 497 | 91601 | −1067 | 70999 | 16521 | 674 | 1087 | mean luminescent intensity (RLuc pDNA) (HepG2 cells [1]; Petroselinyl, 5 μM): 76240 RLU; mean fluorescence intensity after transfection of EGFP mRNA (HepG2 cells [2]; Dodecanal, 15 μM): 606; mean fluorescence intensity after transfection of EGFP mRNA (HepG2 cells [2]; Petroselinyl, 10 μM): 1128; mean fluorescence intensity after transfection of EGFP mRNA (HepG2 cells [2]; Petroselinyl, 15 μM): 967; mean fluorescence intensity (EGFP mRNA) (ARPE19 cells; Dodecanal, 5 μM): 1162; mean fluorescence intensity (EGFP mRNA) (ARPE19 cells; Dodecanal, 10 μM): 1636; mean fluorescence intensity (EGFP mRNA) (ARPE19 cells; Myristoleyl, 2.5 μM): 1787; mean fluorescence intensity (EGFP mRNA) (ARPE19 cells; Myristoleyl, 5 μM): 1055; mean fluorescence intensity (EGFP mRNA) (ARPE19 cells; Myristoleyl, 10 μM): 1763; mean fluorescence intensity (EGFP mRNA) (ARPE19 cells; Petroselinyl, 2.5 μM): 1485; mean fluorescence intensity (EGFP mRNA) (Hela cells; HeLa, Dodecanal, 5 μM): 445; mean fluorescence intensity (EGFP mRNA) (Hela cells; HeLa, Myristoleyl, 2.5 μM): 535; mean fluorescence intensity (EGFP mRNA) (Hela cells; HeLa, Oleyl, 5 μM): 427; mean fluorescence intensity (EGFP mRNA) (Hela cells; HeLa, Petroselinyl, 2.5 μM): 633; mean fluorescence intensity (EGFP mRNA) (Hela cells; Hela, Dodecanal, 10 μM): 393; mean fluorescence intensity (EGFP mRNA) (Hela cells; Hela, Myristoleyl, 5 μM): 580; mean fluorescence intensity (EGFP mRNA) (Hela cells; Hela, Myristoleyl, 10 μM): 424
Ac-RRLK*RLLRRLK*RLK*RRL-NH2 (Ac-RRLK(NHNH2)RLLRRLK(NHNH2)RLK(NHNH2)RRL-NH2; not fully specified; printed as Ac-RRLK*RLLRRLK*RLK*RRL-NH2; also: K*4,K*11,K*14: native or modified lysine (ε-amide to a linker)) [Peptide 17.3] | 2293 | −1196 |  | −417 | 6483 | 39022 | −417 | 63064 | 7710 | 356 | 351 | 293 | −16 | 25 | 39022 | −1375 | 63064 | 356 | 2293 | 6483 | mean luminescent intensity (RLuc pDNA) (HepG2 cells [1]; Dodecanal, 5 μM): 32417 RLU; mean fluorescence intensity after transfection of EGFP mRNA (HepG2 cells [2]; Dodecanal, 5 μM): 32417; mean fluorescence intensity after transfection of EGFP mRNA (HepG2 cells [2]; Myristoleyl, 10 μM): 251; mean fluorescence intensity after transfection of EGFP mRNA (HepG2 cells [2]; Petroselinyl, 5 μM): 56287; mean fluorescence intensity after transfection of EGFP mRNA (HepG2 cells [2]; Petroselinyl, 10 μM): 5790; mean fluorescence intensity after transfection of EGFP mRNA (HepG2 cells [2]; Petroselinyl, 15 μM): 157; mean fluorescence intensity (EGFP mRNA) (ARPE19 cells; Dodecanal, 5 μM): 466; mean fluorescence intensity (EGFP mRNA) (ARPE19 cells; Myristoleyl, 5 μM): 323; mean fluorescence intensity (EGFP mRNA) (ARPE19 cells; Myristoleyl, 10 μM): 393; mean fluorescence intensity (EGFP mRNA) (ARPE19 cells; Petroselinyl, 2.5 μM): 479; mean fluorescence intensity (EGFP mRNA) (Hela cells; HeLa, Dodecanal, 5 μM): 43; mean fluorescence intensity (EGFP mRNA) (Hela cells; HeLa, Myristoleyl, 2.5 μM): 64; mean fluorescence intensity (EGFP mRNA) (Hela cells; Hela, Dodecanal, 10 μM): 52; mean fluorescence intensity (EGFP mRNA) (Hela cells; Hela, Myristoleyl, 5 μM): 6; mean fluorescence intensity (EGFP mRNA) (Hela cells; Hela, Myristoleyl, 10 μM): 76
